≈ marks a conversion by molar mass, not a printed value.
Experiments:
MRSA 97-115 [1] = assay: Bactericidal activity test (MBC, phenol coefficient measuring method); type: cell-based, methicillin-resistant Staphylococcus aureus
Experimental: (§1) As a test bacterium, the same bacteria species as those of the antibacterial activity test were used; as a medium to be used, a SCD medium (manufactured by Eiken Chemical Co., Ltd.) was used for pre-culture medium; and a heart infusion bouillon medium (manufactured by Eiken Chemical Co., Ltd.) was used as a medium for growing a live bacterium in a test solution after bactericidal treatment. One platinum loop of a test bacterium was inoculated into 20 ml of a medium, and static culture was carried out at 37° C. for 18 to 20 hours, and the cells were adjusted with a sterilized physiological saline to 1×10^7/ml, which was used as a test bacterium solution.
(§2) Then, a solution of each compound in methanol was subjected to ½ stepwise dilution with sterilized water, each 5 ml was dispensed into a test tube, 0.5 ml of the previously prepared test bacterium solution was added thereto, and the mixture was blended well. After 1 minute, 3 minutes and 5 minutes has passed, 5 μl of the test solution was collected and inoculated into 2 ml of a heart infusion bouillon medium, this was cultured at 37° C. for 40 to 48 hours, and the presence or absence of growth of a bacterium was determined. A test was performed three times, a minimum concentration at which growth of a bacterium was not recognized two or more times was adopted as a minimal bactericidal concentration (MBC value).
(§3) Numerical values in Tables represent MBC expressed in μg/ml unit.

S. aureus 209PJC [2] = assay: as above; type: cell-based
Experimental: as §1, §2, §3

P. aeruginosa PAO-1 [3] = assay: as above; type: cell-based
Experimental: as §1, §2, §3

E. coli NIHJ JC-2 [4] = assay: as above; type: cell-based
Experimental: as §1, §2, §3

S. aureus 209PJC [5] = assay: Antibacterial activity test (MIC); type: cell-based; settings: Mueller-Hinton Broth, 37° C., 20 to 24 hours
How it was run: (§4)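 Broth dilution MIC per the Japanese Society of Chemotherapy standard method in Mueller-Hinton Broth. Strains were grown statically at 37° C for 16 to 20 hours and diluted in sterile saline to 10^5/ml. Compounds were dissolved in methanol and serially diluted twofold in medium, giving 100 μg/ml and 2^n-fold (n=−10 to 1).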

P. aeruginosa PAO-1 [6] = assay: Antibacterial activity test (MIC); type: cell-based; settings: Mueller-Hinton Broth, 37° C., 20 to 24 hours
How it was run: as §4

E. coli NIHJ JC-2 [7] = assay: Antibacterial activity test (MIC); type: cell-based; settings: Mueller-Hinton Broth, 37° C., 20 to 24 hours
How it was run: as §4

MRSA 97-115 [8] = assay: Antibacterial activity test (MIC); type: cell-based, methicillin-resistant Staphylococcus aureus; settings: Mueller-Hinton Broth, 37° C., 20 to 24 hours
How it was run: as §4

SMILES | minimal inhibitory concentration (MIC) (S. aureus 209PJC [5]) [µg/mL] | minimal inhibitory concentration (MIC) (P. aeruginosa PAO-1 [6]) [µg/mL] | minimal inhibitory concentration (MIC) (E. coli NIHJ JC-2 [7]) [µg/mL] | minimal inhibitory concentration (MIC) (MRSA 97-115 [8]) [µg/mL] | minimal bactericidal concentration (MBC) (MRSA 97-115 [1]; 1 min) [µg/mL] | minimal bactericidal concentration (MBC) (MRSA 97-115 [1]; 3 min) [µg/mL] | minimal bactericidal concentration (MBC) (MRSA 97-115 [1]; 5 min) [µg/mL] | minimal bactericidal concentration (MBC) (S. aureus 209PJC [2]; 1 min) [µg/mL] | minimal bactericidal concentration (MBC) (S. aureus 209PJC [2]; 3 min) [µg/mL] | minimal bactericidal concentration (MBC) (S. aureus 209PJC [2]; 5 min) [µg/mL] | minimal bactericidal concentration (MBC) (P. aeruginosa PAO-1 [3]; 1 min) [µg/mL] | minimal bactericidal concentration (MBC) (P. aeruginosa PAO-1 [3]; 3 min) [µg/mL] | minimal bactericidal concentration (MBC) (P. aeruginosa PAO-1 [3]; 5 min) [µg/mL] | minimal bactericidal concentration (MBC) (E. coli NIHJ JC-2 [4]; 1 min) [µg/mL] | minimal bactericidal concentration (MBC) (E. coli NIHJ JC-2 [4]; 3 min) [µg/mL] | minimal bactericidal concentration (MBC) (E. coli NIHJ JC-2 [4]; 5 min) [µg/mL]
CC(=O)O.CCCCCCCCNC1=NC(C)(C)N=C(NCC2CCCCC2)N1 [compound 65] | 0.8 | 50 | 25 | 0.8 | 25 | 12.5 | 12.5 | 12.5 | 3.1 | 3.1 | 3.1 | 1.6 | 1.6 | 3.1 | 1.6 | 1.6
CCCCCCCCCCCC1N=C(N)NC(NCc2ccccc2)=N1.Cl (racemic) [43(1)] | 0.4 | 25 | 6.3 | 0.8 | 50 | 25 | 12.5 | 25 | 6.3 | 6.3 | 3.1 | 3.1 | 3.1 | 12.5 | 6.3 | 3.1
CCCCCCCCCCC1N=C(N)N=C(N)N1c1ccc(F)c(F)c1F.Cl (centres unmarked) [compound 31] | 1.6 | 25 | 12.5 | 3.1 | 25 | 12.5 | 6.3 | 25 | 12.5 | 12.5 | 12.5 | 12.5 | 6.3 | 12.5 | 12.5 | 6.3
CCCCCCCCCC1N=C(N)N=C(N)N1c1ccc(C(C)(C)C)cc1.Cl (centres unmarked) [compound 22] | 0.8 | 25 | 25 | 0.8 | 25 | 25 | 12.5 | 12.5 | 6.3 | 6.3 | 12.5 | 3.1 | 3.1 | 6.3 | 6.3 | 6.3

The next lines start with results.

minimal inhibitory concentration (MIC) (S. aureus 209PJC [5]) [µg/mL] | minimal inhibitory concentration (MIC) (P. aeruginosa PAO-1 [6]) [µg/mL] | minimal inhibitory concentration (MIC) (E. coli NIHJ JC-2 [7]) [µg/mL] | minimal inhibitory concentration (MIC) (MRSA 97-115 [8]) [µg/mL] | SMILES | minimal bactericidal concentration (MBC) (MRSA 97-115 [1]; 1 min) [µg/mL] | minimal bactericidal concentration (MBC) (MRSA 97-115 [1]; 3 min) [µg/mL] | minimal bactericidal concentration (MBC) (MRSA 97-115 [1]; 5 min) [µg/mL] | minimal bactericidal concentration (MBC) (S. aureus 209PJC [2]; 1 min) [µg/mL] | minimal bactericidal concentration (MBC) (S. aureus 209PJC [2]; 3 min) [µg/mL] | minimal bactericidal concentration (MBC) (S. aureus 209PJC [2]; 5 min) [µg/mL] | minimal bactericidal concentration (MBC) (P. aeruginosa PAO-1 [3]; 1 min) [µg/mL] | minimal bactericidal concentration (MBC) (P. aeruginosa PAO-1 [3]; 3 min) [µg/mL] | minimal bactericidal concentration (MBC) (P. aeruginosa PAO-1 [3]; 5 min) [µg/mL] | minimal bactericidal concentration (MBC) (E. coli NIHJ JC-2 [4]; 1 min) [µg/mL] | minimal bactericidal concentration (MBC) (E. coli NIHJ JC-2 [4]; 3 min) [µg/mL] | minimal bactericidal concentration (MBC) (E. coli NIHJ JC-2 [4]; 5 min) [µg/mL]
0.8 (≈ 2.24 µM) | 25 (≈ 69.9 µM) | 12.5 (≈ 35 µM) | 1.6 (≈ 4.47 µM) | CCCCCCCCNC1=NC(C)(C)N=C(NCc2ccc(C)cc2)N1 [compound 37] | 25 (≈ 69.9 µM) | 25 (≈ 69.9 µM) | 12.5 (≈ 35 µM) | 12.5 (≈ 35 µM) | 6.3 (≈ 17.6 µM) | 6.3 (≈ 17.6 µM) | 3.1 (≈ 8.67 µM) | 3.1 (≈ 8.67 µM) | 3.1 (≈ 8.67 µM) | 12.5 (≈ 35 µM) | 6.3 (≈ 17.6 µM) | 3.1 (≈ 8.67 µM)
0.4 | 12.5 | 12.5 | 0.8 | CC(=O)O.CCCCCCCCCNC1=NC(C)(C)N=C(NCCc2ccccc2)N1 [compound 56] | 25 | 12.5 | 6.3 | 25 | 12.5 | 6.3 | 12.5 | 3.1 | 1.6 | 12.5 | 3.1 | 3.1
0.8 | 50 | 12.5 | 0.8 | CC(=O)O.CCCCCCCNC1=NC(C)(C)N=C(NCCCCCCC)N1 [compound 69] | 25 | 25 | 12.5 | 6.3 | 6.3 | 3.1 | 3.1 | 1.6 | 1.6 | 6.3 | 3.1 | 3.1
0.4 | 50 | 50 | 0.8 | CCCCCCCCCCNC1=NC(C)(C)N=C(NCCc2ccc(OC)cc2)N1.Cl [compound 4] | 25 | 6.3 | 6.3 | 50 | 12.5 | 6.3 | 3.1 | 3.1 | 1.6 | 3.1 | 1.6 | 1.6
